According to patent US9243001B2, “Substituted benzene compounds” (Epizyme, Inc., priority 2013, dated 2016):
pIC50: −log10 of the molar value.

Target: T1, wild-type EZH2 (PRC2 enzyme) (Homo sapiens, UniProt Q15910)
T1 construct: made in house; host or cells: Spodoptera frugiperda (sf9) cells, baculovirus
Assay: PRC2 enzyme assay on peptide substrates (wild-type EZH2)
Type: biochemical
Details: wild-type PRC2 enzyme 4 nM, H3K27me0 peptide substrate, 3H-SAM Flashplate; read-out: WT EZH2 IC50
Source text: General Materials. S-adenosylmethionine (SAM), S-adenosylhomocyteine (SAH), bicine, KCl, Tween20, dimethylsulfoxide (DMSO) and bovine skin gelatin (BSG) were purchased from Sigma-Aldrich at the highest level of purity possible. Dithiothreitol (DTT) was purchased from EMD Millipore. ^3H-SAM was purchased from American Radiolabeled Chemicals with a specific activity of 80 Ci/mmol. 384-well streptavidin Flashplates were purchased from PerkinElmer.
Substrates. Peptides representative of human histone H3 residues 21- 44 containing either an unmodified lysine 27 (H3K27me0) or dimethylated lysine 27 (H3K27me2) are synthesized with a C-terminal G(K-biotin) linker-affinity tag motif and a C-terminal amide cap by 21st Century Biochemicals. The peptides are high-performance liquid chromatography (HPLC) purified to greater than 95% purity and confirmed by liquid chromatography mass spectrometry (LC-MS). The sequences are listed below.
Recombinant PRC2 Enzymes. Human PRC2 enzymes were purified as 4-component enzyme complexes co-expressed in Spodoptera frugiperda (sf9) cells using a baculovirus expression system. The subunits expressed were wild-type EZH2 (NM_004456) or EZH2 Y641F, N, H, S or C mutants generated from the wild-type EZH2 construct, EED (NM_003797), Suz12 (NM_015355) and RbAp48 (NM_005610). The EED subunit contained an N-terminal FLAG tag that was used to purify the entire 4-component complex from sf9 cell lysates. The purity of the complexes met or exceeded 95% as determined by SDS-PAGE and Agilent Bioanalyzer analysis. Concentrations of enzyme stock concentrations (generally 0.3-1.0 mg/mL) was determined using a Bradford assay against a bovine serum albumin (BSA) standard.
General Procedure for PRC2 Enzyme Assays on Peptide Substrates. The assays were all performed in a buffer consisting of 20 mM bicine (pH=7.6), 0.5 mM DTT, 0.005% BSG and 0.002% Tween20, prepared on the day of use. Compounds in 100% DMSO (1 μL) were spotted into polypropylene 384-well V-bottom plates (Greiner) using a Platemate 2×3 outfitted with a 384-channel pipet head (Thermo). DMSO (1 μL) was added to columns 11, 12, 23, 24, rows A -H for the maximum signal control, and SAH, a known product and inhibitor of PRC2 (1 μL) was added to columns 11,12, 23, 24, rows I -P for the minimum signal control. A cocktail (40 μL) containing the wild-type PRC2 enzyme and H3K27me0 peptide or any of the Y641 mutant enzymes and H3K27me2 peptide was added by Multidrop Combi (Thermo). The compounds were allowed to incubate with PRC2 for 30 min at 25° C., then a cocktail (10 μL) containing a mixture of non-radioactive and ^3H-SAM was added to initiate the reaction (final volume=51 μL). In all cases, the final concentrations were as follows: wild-type or mutant PRC2 enzyme was 4 nM, SAH in the minimum signal control wells was 1 mM and the DMSO concentration was 1%. The assays were stopped by the addition of non-radioactive SAM (10 μL) to a final concentration of 600 μM, which dilutes the ^3H-SAM to a level where its incorporation into the peptide substrate is no longer detectable. 50 μL of the reaction in the 384-well polypropylene plate was then transferred to a 384-well Flashplate and the biotinylated peptides were allowed to bind to the streptavidin surface for at least 1 h before being washed three times with 0.1% Tween20 in a Biotek ELx405 plate washer. The plates were then read in a PerkinElmer TopCount platereader to measure the quantity of ^3H-labeled peptide bound to the Flashplate surface, measured as disintegrations per minute (dpm) or alternatively, referred to as counts per minute (cpm).
Where dpm=disintegrations per minute, cmpd=signal in assay well, and min and max are the respective minimum and maximum signal controls.
Where top and bottom are the normally allowed to float, but may be fixed at 100 or 0 respectively in a 3-parameter fit. The Hill Coefficient normally allowed to float but may also be fixed at 1 in a 3-parameter fit. […]

T1 sequence (Q15910 1-751 isoform Q15910-2): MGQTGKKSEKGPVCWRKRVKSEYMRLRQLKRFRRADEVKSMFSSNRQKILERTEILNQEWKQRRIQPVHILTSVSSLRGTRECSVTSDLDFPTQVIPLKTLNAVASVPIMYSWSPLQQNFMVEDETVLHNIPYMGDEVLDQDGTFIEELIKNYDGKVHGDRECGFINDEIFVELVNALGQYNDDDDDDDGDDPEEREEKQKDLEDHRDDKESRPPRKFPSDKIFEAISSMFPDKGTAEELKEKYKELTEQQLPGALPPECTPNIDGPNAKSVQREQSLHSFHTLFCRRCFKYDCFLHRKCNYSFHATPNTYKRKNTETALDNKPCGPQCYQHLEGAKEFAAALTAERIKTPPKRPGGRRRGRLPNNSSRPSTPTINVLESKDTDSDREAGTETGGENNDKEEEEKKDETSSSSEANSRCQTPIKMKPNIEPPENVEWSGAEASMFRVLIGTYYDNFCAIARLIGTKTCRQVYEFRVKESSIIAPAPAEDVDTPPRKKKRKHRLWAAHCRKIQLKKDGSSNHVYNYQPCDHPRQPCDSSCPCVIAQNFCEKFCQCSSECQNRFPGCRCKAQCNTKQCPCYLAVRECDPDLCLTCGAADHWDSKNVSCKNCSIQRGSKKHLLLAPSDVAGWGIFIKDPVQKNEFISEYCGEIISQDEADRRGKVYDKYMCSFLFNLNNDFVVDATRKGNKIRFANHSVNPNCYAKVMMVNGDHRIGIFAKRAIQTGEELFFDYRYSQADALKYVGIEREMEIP
T1 sequence (O75530 whole entry partner): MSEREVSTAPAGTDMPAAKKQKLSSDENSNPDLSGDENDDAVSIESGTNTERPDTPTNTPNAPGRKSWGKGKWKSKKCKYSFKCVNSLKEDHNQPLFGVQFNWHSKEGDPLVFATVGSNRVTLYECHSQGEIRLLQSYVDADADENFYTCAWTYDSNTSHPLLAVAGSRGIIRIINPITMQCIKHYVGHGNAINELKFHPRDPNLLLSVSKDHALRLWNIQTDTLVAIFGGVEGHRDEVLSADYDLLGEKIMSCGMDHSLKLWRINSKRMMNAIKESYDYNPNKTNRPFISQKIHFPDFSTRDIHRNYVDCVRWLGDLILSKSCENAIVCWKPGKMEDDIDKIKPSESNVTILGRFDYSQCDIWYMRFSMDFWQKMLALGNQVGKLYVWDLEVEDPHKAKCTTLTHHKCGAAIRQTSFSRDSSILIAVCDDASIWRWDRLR
T1 sequence (Q15022 whole entry partner): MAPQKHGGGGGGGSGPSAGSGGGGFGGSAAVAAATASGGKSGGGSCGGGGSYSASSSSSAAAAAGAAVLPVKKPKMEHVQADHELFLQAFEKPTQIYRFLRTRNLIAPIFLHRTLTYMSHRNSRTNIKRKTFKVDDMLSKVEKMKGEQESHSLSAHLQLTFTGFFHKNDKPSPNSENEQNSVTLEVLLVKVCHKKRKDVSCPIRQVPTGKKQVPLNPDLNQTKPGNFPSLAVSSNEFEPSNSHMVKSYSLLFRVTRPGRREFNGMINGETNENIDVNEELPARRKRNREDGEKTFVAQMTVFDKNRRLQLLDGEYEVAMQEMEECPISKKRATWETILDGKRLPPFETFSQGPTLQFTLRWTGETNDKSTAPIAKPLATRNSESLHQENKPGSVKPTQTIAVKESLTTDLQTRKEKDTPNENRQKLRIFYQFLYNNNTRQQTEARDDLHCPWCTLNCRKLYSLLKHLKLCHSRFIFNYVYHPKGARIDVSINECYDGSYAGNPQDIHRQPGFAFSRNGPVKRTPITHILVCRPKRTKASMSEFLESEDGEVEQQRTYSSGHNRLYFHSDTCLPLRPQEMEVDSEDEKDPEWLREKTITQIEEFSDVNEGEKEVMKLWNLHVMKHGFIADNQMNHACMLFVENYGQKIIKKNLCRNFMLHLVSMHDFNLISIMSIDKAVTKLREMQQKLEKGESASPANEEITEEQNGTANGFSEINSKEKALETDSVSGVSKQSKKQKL
T1 sequence (Q09028 whole entry partner): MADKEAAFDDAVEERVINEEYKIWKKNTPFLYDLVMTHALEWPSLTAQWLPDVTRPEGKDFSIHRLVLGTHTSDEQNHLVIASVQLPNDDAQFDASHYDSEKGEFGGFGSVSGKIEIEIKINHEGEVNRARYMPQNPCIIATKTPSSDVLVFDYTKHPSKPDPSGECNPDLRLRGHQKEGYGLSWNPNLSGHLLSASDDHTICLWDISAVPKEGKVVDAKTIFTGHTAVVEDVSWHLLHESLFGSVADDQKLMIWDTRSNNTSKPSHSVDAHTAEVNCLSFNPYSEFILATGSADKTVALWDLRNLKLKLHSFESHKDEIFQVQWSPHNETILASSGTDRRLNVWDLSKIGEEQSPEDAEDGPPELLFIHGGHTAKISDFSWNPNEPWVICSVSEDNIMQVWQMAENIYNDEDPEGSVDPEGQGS

SMILES	pIC50
CCN(c1cc(Cl)cc(C(=O)NCc2cn(C)cn2)c1C)C1CCOCC1 [Compound 25, 5-chloro-3-(ethyl(tetrahydro-2H-pyran-4-yl)amino)-2-methyl-N-((1-methyl-1H-imidazol-4-yl)methyl)benzamide]	5.11
CCN(c1cc(Cl)cc(C(=O)NCCc2nccn2Cc2ccccc2)c1C)[C@H]1CC[C@H](N(C)C)CC1 [Compound 9, N-(2-(1-benzyl-1H-imidazol-2-yl)ethyl)-5-chloro-3-(((trans)-4-(dimethylamino)cyclohexyl)(ethyl)amino)-2-methylbenzamide]	5.78
CCN(c1cc(Cl)cc(C(=O)NCc2cc(C)nn2C)c1C)C1CCOCC1 [Compound 31, 5-chloro-N-((1,3-dimethyl-1H-pyrazol-5-yl)methyl)-3-(ethyl(tetrahydro-2H-pyran-4-yl)amino)-2-methylbenzamide]	< 4.30
CCN(c1cc(Cl)cc(C(=O)NCc2c(C)cc(C)n3ccnc23)c1C)[C@H]1CC[C@H](N(C)C)CC1 [Compound 1, 5-chloro-3-(((trans)-4-(dimethylamino)cyclohexyl)(ethyl)amino)-N-((5,7-dimethylimidazo[1,2-a]pyridin-8-yl)methyl)-2-methylbenzamide]	6.36

Now from value to compound:

pIC50	SMILES
< 5.00	CCN(c1cc(Cl)cc(C(=O)NCc2ncc[nH]2)c1C)[C@H]1CC[C@H](N(C)C)CC1 [Compound 15, N-((1H-imidazol-2-yl)methyl)-5-chloro-3-(((trans)-4-(dimethylamino)cyclohexyl)(ethyl)amino)-2-methylbenzamide]
5.18	CCN(c1cc(Cl)cc(C(=O)NCCc2nc3ccccc3o2)c1C)[C@H]1CC[C@H](N(C)C)CC1 [Compound 14, N-(2-(benzo[d]oxazol-2-yl)ethyl)-5-chloro-3-(((trans)-4-(dimethylamino)cyclohexyl)(ethyl)amino)-2-methylbenzamide]
< 5.00	CCN(c1cc(Cl)cc(C(=O)NCc2nc3ccccc3[nH]2)c1C)[C@H]1CC[C@H](N(C)C)CC1 [Compound 19, N-((1H-benzo[d]imidazol-2-yl)methyl)-5-chloro-3-(((1r,4r)-4-(dimethylamino)cyclohexyl)(ethyl)amino)-2-methylbenzamide]
